How the values were obtained:
[1] = target: human MALT-1 protein (Homo sapiens (Human), UniProt Q9UDY8); assay: MALT-1 Biochemical Assay (Quench-FRET enzyme assay); settings: human MALT-1 6 nM, substrate 2 μM, 40 min preincubation
Text: A Quenched Fluorescence Resonance Energy Transfer (Quench-FRET) enzyme assay was used to test the ability of exemplary MALT-1 inhibitors Example 1 to Example 39 to inhibit the cleavage of a MALT1 specific quenched fluorescent substrate of sequence [TAMRA-PEG2-Leu-Val-Ser-Arg-Gly-Ala-Ala-Ser-PEG2-K(QSY7) by human MALT-1 protein; where TAMRA is 6-carboxytetramethylrhodamine, PEG2 is 2-(2-(2-aminoethoxy)ethoxyamide linker, QSY7 is a non-fluorescent quenching dye (Thermo-Fisher catalog #Q10193). The assay was performed by pre-dispensing compounds into 384 well Proxiplates™ (PE 6008289). Human MALT-1 (6 nM) was prepared using the assay buffer (25 mM HEPES pH 7.5, 1 mM ethylenediaminetetraacetic acid, 0.8 M sodium citrate, 0.005% Bovine serum albumin (BSA), 2 mM dithiothreitol (DTT)) and added to the compound plates. The plates were incubated 40 minutes at room temperature. The reaction was carried out by adding the substrate (2 μM) to the plates and incubating for 60 minutes at room temperature. A fluorescence readout was then measured using a PE EnVision® reader (Ex.535/Em.590). […] EC50 is defined as the half maximal effective concentration of compound to inhibit MALT-1 protease activity.

[2] = system: OCI-LY3 IL6; assay: MALT-1 Cell IL-6 AlphaLISA Assay; assay type: cell-based; settings: Homo sapiens; OCI-LY3 cells, 48 hours incubation; read-out: OCI-LY3 IL6 48 hour Inhibition EC50
Experimental: The following MALT-1 Cell Interleukin-6 (IL-6) AlphaLISA assay was conducted using a Perkin Elmer® IL-6 AlphaLISA® detection kit (PE AL223). The IL-6 detection assay is a homogeneous immunoassay that detects human IL-6 present in the cell culture medium in the MALT-1 dependent human ABC-DLBCL cell line, OCI-LY3. Compounds were pre-dispensed into Black 384w microtiter plates (Greiner, 781090) from 30 μM to 1.5 nM. Viable OCI-LY3 cells were then seeded on top of compounds at a seeding density of 50,000 cells/mL. Plates were then placed into 37° C. incubators for 48 hours. After 48 hours incubation, 2 μL of cell medium from each well was transferred into white ProxiPlates™ (PE 6008289). A fresh mix of AlphaLISA Acceptor beads (10 μg/mL) and Biotinylated IL-6 Antibody (1 nM) was made in AlphaLISA Immunoassay buffer and added to all wells (4 μL). The plates were incubated for 60 minutes at room temperature. Streptavidin donor beads (40 μg/mL) were prepared using the assay buffer and added to all wells (5 The plates were incubated for 30 minutes at room temperature and read using PE EnVision® reader. Results are shown in Table 3.

[3] = system: CYP 3A4 mRNA; assay: CYP3A4 Induction Assay (qPCR, human hepatocytes); assay type: in vitro ADME; settings: 10 μM compound; for CYP3A4 % of positive control (%): relative to rifampicin 10 μM
Experimental: (§1) CYP induction by compounds of the Examples was evaluated in vitro by determining the expression levels of CYP 3A4 mRNA using the qPCR (quantitative polymerase chain reaction) assay. On day one, cryopreserved human hepatocytes were thawed in prewarmed (37° C.) thawing medium (cryopreserved hepatocyte recovery medium, Gibco™ CM 7000; Thermo Fisher Scientific), centrifuged (1000 g for 10 minutes) and resuspended in plating medium (Gibco™ CM3000—Williams Medium E supplemented with hepatocytes plating supplement pak-serum containing; Thermo Fisher Scientific). Cells were counted by trypan blue exclusion using a hemocytometer and adjusted to a cell density of […]. Thereafter, […] of cell suspension was aliquoted per well in a 96-well plate, resulting in 60,000 cells/well. Plates were shaken in the north-south and east-west direction during plating. Plated cells were incubated at 37° C/5% CO2 in a humidified cell culture incubator for 4-6 hours. During this time, incubation medium (Gibco™ CM4000, cell maintenance supplement pack; Thermo Fisher Scientific) was mixed with Gibco™ Geltrex™ (Thermo Fischer Scientific) at the appropriate GeltrexTM protein concentration. Following recovery, medium was removed from cells and replaced with freshly prepared incubation medium. Cells were incubated overnight in a cell culture incubator (37° C./5% CO2).
(§2) The next day the incubation medium was prepared by combining the hepatocyte maintenance supplement pack with Williams Medium E. The medium was warmed to 37° C. 1000× dimethyl sulfoxide compound stocks of the compounds of the Examples were prepared to the desired concentrations. 10 mM compound stocks in dimethyl sulfoxide were diluted (1 μL to 1 mL CM4000; final concentration=10 μM). Overlay medium was aspirated and […] dose solution added to the desired labeled 96 well plate. Cells were then dosed with compound (10 μM) and prototypical induces at the targeted concentrations either 50 i.tM for omeprazole (Sigma 0104/lotBCBF-2161V) or 10 i.tM for rifampicin (Sigma R3501/lot 011M1159V). A negative control, probenecid, was dosed at 10 i.tM (Sigma P8761/lot 013K0148).
(§3) On day 3, RNA isolation was performed. All surfaces were cleaned using RNase RNAy. Total RNA was isolated using MagMAX Express 96 RNA Isolation System (Life Technologies, AM1830). Briefly, hepatocytes were washed once with 1X PBS (phosphate buffered saline). 145 μL of RNA Lysis Buffer was added to each well and each well was mixed by pipetting several times. Lysate was then transferred to a well of a 96 well Binding Plate. Samples were then mixed with 20 μL magnetic beads coming from the kit. RNA bound to beads was then captured by the magnetic tip manifold and beads were washed with the wash solution. Samples were treated with TURBOTmDNase. After TURBOTmDNase treatment, RNA was rebound to beads and washed with the provided wash buffer an additional two times. Beads are then dried, and RNA was eluted with 50 μL elution buffer. The eluted mRNA was transferred from the wells to RNase-free sealable microtiter plates and stored at -80° C. until use.
(§4) Following mRNA isolation, reverse transcription (RT) reactions were performed using TaqmanTm Reverse Transcription Reagents (ThermoFisher Scientific). RT master mix was prepared by mixing 2.5 μL 10× RT buffer, 5.5 μL 25 mM MgCl2, 5μL deoxyNTP mixture, 1.25 50 mM random hexamers, 0.5 μL 2× RNAse inhibitor, 0.625 μL multiscript RTase (50U/μL) and 0.625 μL water. An aliquot of RT mix (16 μL) and an aliquot of mRNA sample (9 μL) was added to each well of a 96-well plate. The SimpliAmpTM Thermal cycler PCR System VIIA7 from Applied Biosystems was used for reverse transcription under the following conditions: segment 1: 25° C. for 10 minutes; segment 2: 45° C. for 45 minutes; segment 3: 95° C. for 5 minutes; and segment 4: 4° C. hold; with 1 cycle for each segment. […]

[4] = system: CYP3A4 mRNA; assay: CYP3A4 Induction Assay (qPCR, human hepatocytes); assay type: in vitro ADME; settings: cryopreserved human hepatocytes (plated), 10 μM compound, mRNA fold over vehicle (0.1% DMSO)
Experimental: as §1, §2, §3, §4

[5] = system: male Sprague-Dawley rats; assay: Cardiovascular Assay in anesthetized rats; assay type: in vivo; settings: rat; for HR (%) / MAP (%) / dP/dt@50 (%): change from vehicle; for Drug (μg/mL SEM): plasma at end of infusion
Experimental: The following cardiovascular assay was conducted using male Sprague-Dawley rats that were anesthetized with Inactin (thiobutabarbital), instrumented (catheterized both femoral artery and vein; catheterize left ventricular) and allowed to stabilize. Following a 30-minute baseline period, each compound was infused at low, medium, and high doses/30 minutes. Plasma samples were taken at the end of each dose infusion. If, at any point, the mean arterial pressure (MAP) of an animal decreased below 70 mmHg, the infusion was immediately stopped, a final blood sample was taken, and hemodynamic data for that animal was removed from the group average for all subsequent time points. A 15% change from vehicle for MAP or heart rate (HR), respectively, is considered biologically relevant. A 20% change from vehicle for dP/dt@50 is considered biologically relevant.

Sequence of human MALT-1 protein (Q9UDY8 whole entry): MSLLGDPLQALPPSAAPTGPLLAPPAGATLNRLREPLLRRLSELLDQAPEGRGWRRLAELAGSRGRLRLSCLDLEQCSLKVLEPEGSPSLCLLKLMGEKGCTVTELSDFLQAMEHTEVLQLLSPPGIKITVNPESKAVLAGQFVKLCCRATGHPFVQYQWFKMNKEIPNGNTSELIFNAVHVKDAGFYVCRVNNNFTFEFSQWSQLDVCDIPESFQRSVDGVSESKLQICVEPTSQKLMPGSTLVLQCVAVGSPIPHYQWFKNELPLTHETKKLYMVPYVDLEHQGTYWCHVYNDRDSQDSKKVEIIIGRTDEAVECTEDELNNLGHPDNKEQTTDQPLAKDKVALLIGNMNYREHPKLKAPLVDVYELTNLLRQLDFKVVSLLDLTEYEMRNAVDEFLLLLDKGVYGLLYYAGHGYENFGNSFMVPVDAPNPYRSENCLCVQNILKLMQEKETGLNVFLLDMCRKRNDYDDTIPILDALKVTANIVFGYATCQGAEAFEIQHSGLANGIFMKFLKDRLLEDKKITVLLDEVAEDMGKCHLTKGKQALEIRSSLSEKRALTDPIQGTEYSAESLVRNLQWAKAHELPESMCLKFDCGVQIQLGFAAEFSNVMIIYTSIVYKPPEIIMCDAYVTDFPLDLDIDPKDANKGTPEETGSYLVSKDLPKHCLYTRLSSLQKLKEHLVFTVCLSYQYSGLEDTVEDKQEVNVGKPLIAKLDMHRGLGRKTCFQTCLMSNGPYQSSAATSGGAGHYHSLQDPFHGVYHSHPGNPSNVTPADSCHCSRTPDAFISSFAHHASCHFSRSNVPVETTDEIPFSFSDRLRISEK

Row | EC50 [1] | EC50 [2] | CYP3A4 % of positive control (%) [3] | fold induction at 1 day, 10 µM [4] | SMILES | other results
1 | 92 nM | 580 nM |  |  | CO[C@H](c1c(Nc2ccc([C@H](N(C)C(=O)C3CCS(=O)(=O)CC3)C(F)(F)F)cc2F)cnc2sc(C)nc12)C(F)F (single isomer, unassigned) [Example 17] | 
2 | 156 nM | 190 nM | (19.9) % | 2.72 | Cc1nc2c([C@@H](C)C(F)(F)F)c(Nc3ccc([C@H](N(C)C(=O)C4CCS(=O)(=O)CC4)C(F)(F)F)cc3)cnc2s1 (single isomer, unassigned) [Example 38] | 
3 | 83 nM | 40 nM | (14.9) % | 2.29 | Cc1nc2c([C@H](C)C(F)(F)F)c(Nc3ccc([C@H](N(C)C(=O)C4CCS(=O)(=O)CC4)C(F)(F)F)cc3)cnc2s1 (single isomer, unassigned) [Example 39] | 

Second part, the molecule before the results:

Row | SMILES | EC50 [1] | EC50 [2] | CYP3A4 % of positive control (%) [3] | fold induction at 1 day, 10 µM [4] | other results
4 | CO[C@@H](C)c1c(Nc2ccc([C@H](N(C)C(=O)C3CCS(=O)(=O)CC3)C(F)(F)F)cc2F)cnc2sc(C)nc12 (single isomer, unassigned) [Example 10] | 198 nM | 230 nM | (84.8) % | 8.24 | 
5 | CO[C@@H](C)c1c(Nc2ccc([C@H](N(C)C(=O)C3CCS(=O)(=O)CC3)C(F)(F)F)cc2)cnc2cc(Cl)nn12 [Comparative Example A, N-{(1S)-1-[4-({2-chloro-7-[(1 S)-1-methoxyethyl]pyrazolo [1,5-a]pyrimidin-6-yl}amino)phenyl]-2,2,2-trifluoroethyl}-N-methyl-1,1-dioxo-1λ^6-thiane-4-carboxamide, reference compound] |  |  |  |  | HR (%) ([5]; dose 3 mg/kg): −7%; MAP (%) ([5]; dose 3 mg/kg): −10%; dP/dt@50 (%) ([5]; dose 3 mg/kg): −4%; HR (%) ([5]; dose 10 mg/kg): −11%; MAP (%) ([5]; dose 10 mg/kg): −14%; dP/dt@50 (%) ([5]; dose 10 mg/kg): −7%; HR (%) ([5]; dose 30 mg/kg): −18%; MAP (%) ([5]; dose 30 mg/kg): −22%; dP/dt@50 (%) ([5]; dose 30 mg/kg): −6%; Drug (μg/mL SEM) ([5]; dose 3 mg/kg): 1.45 ± 0.06 µg/mL; Drug (μg/mL SEM) ([5]; dose 10 mg/kg): 5.15 ± 0.32 µg/mL; Drug (μg/mL SEM) ([5]; dose 30 mg/kg): 12.91 ± 1.71 µg/mL
6 | CO[C@@H](C)c1c(NC(=O)Nc2cnc(-n3nccn3)c(C(F)(F)F)c2)cnc2sc(C)nc12 [Comparative Example B, reference compound] |  |  | (25.3) % |  | CYP3A4 Fold induction ([3]; mRNA fold over vehicle (0.1% DMSO)): 2.32
7 | CO[C@H](c1c(Nc2ccc([C@H](N(C)C(=O)C3CCS(=O)(=O)CC3)C(F)(F)F)cc2)cnc2sc(C)nc12)C(F)(F)F [Example 2, N-methyl-1,1-dioxo-N-{(1S)-2,2,2-trifluoro-1-[4-({2-methyl-7-[(1R)-2,2,2-trifluoro-1-methoxyethyl][1,3]thiazolo[5,4-b]pyridin-6-yl}amino)phenyl]ethyl}-1λ^6-thiane-4-carboxamide] | 190 nM | 110 nM | (2.19) % | 1.13 | 
8 | CO[C@@H](C)c1c(Nc2ccc([C@@H](C(F)F)N(C)C(=O)C3CCS(=O)(=O)CC3)cc2)cnc2sc(C)nc12 [Example 4, N-{(1S)-2,2-difluoro-1-[4-({7-[(1S)-1-methoxyethyl]-2-methyl[1,3]thiazolo[5,4-b]pyridin-6-y1}amino)phenyl]ethyl} -N-methyl-1,1-dioxo-1λ^6-thiane-4-carboxamide] | 158 nM | 1330 nM | (16.1) % | 1.98 | 
9 | CO[C@@H](c1c(Nc2ccc([C@H](N(C)C(=O)C3CCS(=O)(=O)CC3)C(F)(F)F)cc2)cnc2sc(C)nc12)C(F)F [Example 5, N-{(1S)-1-[4-({7-[(1S)-2,2-difluoro-l-methoxyethyl]-2-methyl[1,3]thiazolo [5,4-b]pyridin-6-yl}amino)phenyl]-2,2,2-trifluoroethyl}-N-methyl-1,1-dioxo-1λ^6-thiane-4-carboxamide] | 77 nM | 340 nM | (15.3) % | 1.77 | 
10 | CO[C@H](c1c(Nc2ccc([C@@H](C(F)F)N(C)C(=O)C3CCS(=O)(=O)CC3)cc2)cnc2sc(C)nc12)C(F)F [Example 6, N-{(1S)-1-[4-({7-[(1R)-2,2-difluoro-l-methoxyethyl]-2-methyl[1,3]thiazolo[5,4-b]pyridin-6-y1}amino)phenyl]-2,2-difluoroethyl}-N-methyl-1,1-dioxo-1λ^6-thiane-4-carboxamide] | 146 nM | 210 nM | (5.46) % | 1.4 | 
11 | Cc1nc2c(C(C)C(F)F)c(Nc3ccc([C@H](N(C)C(=O)C4CCS(=O)(=O)CC4)C(F)(F)F)cc3)cnc2s1 (stereo partly drawn) [Example 16, N-R[(1S)-1-(4-{ [7-(1,1-difluoropropan-2-yl)-2-methyl[1,3]thiazolo[5,4-b]pyridin-6-yl]amino}phenyl)-2,2,2-trifluoroethyl]-N-methyl-1,1-dioxo-1λ^6-thiane-4-carboxamide] | 106 nM | 470 nM |  |  | 
